# Results: ChEMBL document CHEMBL1130013, “Diltiazem-like calcium entry blockers: a hypothesis of the receptor-binding site based on a comparative molecular field analysis model” (J Med Chem, 1997)
# Molecular target: Voltage-dependent L-type calcium channel subunit alpha-1D (Rattus norvegicus, UniProt P27732)
# Assay: Inhibition of [3H]nitrendipine binding to L-type [Ca2+] channel in rat cortex homogenate, activity expressed as pIC50
# Sequence of Voltage-dependent L-type calcium channel subunit alpha-1D (P27732 whole entry): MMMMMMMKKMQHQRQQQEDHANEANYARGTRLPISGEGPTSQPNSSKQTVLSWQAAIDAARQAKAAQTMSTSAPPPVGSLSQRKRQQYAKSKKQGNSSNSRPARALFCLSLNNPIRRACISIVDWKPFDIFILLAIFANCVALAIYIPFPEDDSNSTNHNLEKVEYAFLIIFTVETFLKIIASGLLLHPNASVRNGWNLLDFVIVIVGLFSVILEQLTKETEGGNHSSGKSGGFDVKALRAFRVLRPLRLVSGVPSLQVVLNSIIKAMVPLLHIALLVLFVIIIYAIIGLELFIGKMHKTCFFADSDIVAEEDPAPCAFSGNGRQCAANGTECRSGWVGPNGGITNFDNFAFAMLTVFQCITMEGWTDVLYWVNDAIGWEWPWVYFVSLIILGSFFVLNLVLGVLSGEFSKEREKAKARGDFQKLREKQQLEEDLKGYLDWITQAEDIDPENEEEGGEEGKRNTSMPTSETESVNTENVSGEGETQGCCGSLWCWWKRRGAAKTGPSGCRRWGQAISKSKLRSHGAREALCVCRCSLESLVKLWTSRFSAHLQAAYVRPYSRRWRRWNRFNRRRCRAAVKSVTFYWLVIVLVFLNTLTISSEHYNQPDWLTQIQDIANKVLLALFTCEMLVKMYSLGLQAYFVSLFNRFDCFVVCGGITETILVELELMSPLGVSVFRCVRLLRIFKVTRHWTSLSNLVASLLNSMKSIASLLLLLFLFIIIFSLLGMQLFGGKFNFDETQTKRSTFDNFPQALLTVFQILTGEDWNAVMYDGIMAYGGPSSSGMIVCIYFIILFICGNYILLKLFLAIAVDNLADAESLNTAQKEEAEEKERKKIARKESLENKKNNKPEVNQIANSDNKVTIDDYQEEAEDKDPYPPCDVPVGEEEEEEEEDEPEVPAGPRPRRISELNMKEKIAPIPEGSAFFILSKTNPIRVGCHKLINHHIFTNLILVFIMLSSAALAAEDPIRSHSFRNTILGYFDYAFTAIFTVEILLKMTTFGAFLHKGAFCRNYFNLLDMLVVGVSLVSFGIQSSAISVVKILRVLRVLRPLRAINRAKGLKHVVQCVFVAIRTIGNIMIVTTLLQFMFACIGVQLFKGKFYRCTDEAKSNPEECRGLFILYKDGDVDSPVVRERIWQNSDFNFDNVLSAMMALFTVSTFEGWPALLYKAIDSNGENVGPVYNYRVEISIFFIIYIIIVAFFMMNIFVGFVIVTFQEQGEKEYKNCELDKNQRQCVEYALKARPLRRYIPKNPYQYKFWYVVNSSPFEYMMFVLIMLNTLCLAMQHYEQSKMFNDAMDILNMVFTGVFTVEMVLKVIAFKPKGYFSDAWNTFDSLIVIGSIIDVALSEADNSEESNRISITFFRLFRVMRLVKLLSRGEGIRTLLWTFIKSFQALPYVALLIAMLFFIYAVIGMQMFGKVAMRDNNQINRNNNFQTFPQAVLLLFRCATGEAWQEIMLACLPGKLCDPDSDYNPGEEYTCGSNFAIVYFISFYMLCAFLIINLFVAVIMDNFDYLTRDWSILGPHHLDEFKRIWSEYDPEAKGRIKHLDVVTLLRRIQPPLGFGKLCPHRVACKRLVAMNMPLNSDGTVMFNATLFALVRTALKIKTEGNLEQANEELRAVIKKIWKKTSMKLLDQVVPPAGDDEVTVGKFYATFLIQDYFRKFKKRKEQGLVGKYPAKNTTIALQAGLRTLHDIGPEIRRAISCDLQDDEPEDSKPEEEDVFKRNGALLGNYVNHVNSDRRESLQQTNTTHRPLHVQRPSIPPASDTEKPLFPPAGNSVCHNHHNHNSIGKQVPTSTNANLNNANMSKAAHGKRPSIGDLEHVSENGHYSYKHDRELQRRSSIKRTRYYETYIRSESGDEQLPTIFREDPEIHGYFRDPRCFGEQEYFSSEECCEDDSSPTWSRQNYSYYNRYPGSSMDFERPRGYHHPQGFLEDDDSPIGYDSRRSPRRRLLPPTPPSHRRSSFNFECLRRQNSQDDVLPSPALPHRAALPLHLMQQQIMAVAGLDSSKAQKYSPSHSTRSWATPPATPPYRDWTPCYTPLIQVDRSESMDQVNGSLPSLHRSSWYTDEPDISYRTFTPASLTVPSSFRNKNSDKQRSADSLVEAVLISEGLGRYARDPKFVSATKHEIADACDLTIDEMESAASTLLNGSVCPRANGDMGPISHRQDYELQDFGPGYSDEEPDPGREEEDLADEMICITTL
row,SMILES,IC50
1,CCC(C)NCc1ccc2n1-c1ccccc1SC2c1ccc(OC)cc1OC (centres undefined),15.1 nM
2,CN(C)Cc1ccc2n1-c1cccc(Cl)c1SC2(c1ccccc1)c1ccccc1,81.3 nM
3,FC(F)(F)c1ccc2c(c1)-n1cccc1C(c1ccccc1)(c1ccccc1)S2,2040 nM
4,CC(=O)O[C@H]1c2ccc(CN(C)C)n2-c2cc(Cl)ccc2S[C@H]1c1ccccc1,1230 nM
5,O=C1CC[C@H]2[C@H](c3ccccc3)Sc3ccccc3N12,0.776 nM
6,COc1ccc(C2Sc3ccccc3-n3c(CN(C)CCc4ccc(OC)c(OC)c4)ccc32)cc1 (centres undefined),52.5 nM
7,CCC(C)NCc1ccc2n1-c1ccccc1SC2C1=CCC(OC)(OC)C=C1 (centres undefined),12 nM
8,CC(=O)O[C@H]1c2ccc(CN(C)C)n2-c2cc(C(F)(F)F)ccc2S[C@H]1c1ccccc1,302 nM
9,COc1ccc([C@@H]2Sc3ccccc3N3C(=O)CC[C@@H]23)cc1,4.37 nM
10,CN(C)Cc1ccc2n1-c1cc(C(F)(F)F)ccc1SC2(c1ccccc1)c1ccccc1,107 nM
11,COc1ccc(C2Sc3ccccc3-n3c(CN4CCOCC4)ccc32)cc1 (centres undefined),5010 nM
12,Clc1ccc2c(c1)-n1cccc1C(c1ccccc1)(c1ccccc1)S2,4370 nM
13,c1ccc(C2(c3ccccc3)Sc3ccccc3-n3cccc32)cc1,468 nM
14,CC(=O)OC1(c2ccccc2)Sc2ccccc2-n2cccc21 (centres undefined),4680 nM
15,COc1ccc(C2Sc3ccccc3-n3c(CN(C)C)ccc32)c(OC)c1 (centres undefined),151 nM
16,CN(C)Cc1ccc2n1-c1ccccc1SC2c1ccccc1 (centres undefined),316 nM
17,Clc1cccc2c1SC(c1ccccc1)(c1ccccc1)c1cccn1-2,316 nM
18,COc1ccc([C@@H]2Sc3ccc(Cl)cc3-n3c(CN(C)C)ccc3[C@@H]2OC(C)=O)cc1,3.31 nM
19,COc1ccc(C2(c3ccc(OC)cc3)Sc3ccccc3-n3c(CN(C)C)ccc32)cc1,2190 nM
20,COc1ccc(C2Sc3ccccc3-n3c(CN(C)CCc4ccc(OC)c(OC)c4)ccc32)c(OC)c1 (centres undefined),1580 nM
21,COC1(OC)C=CC(C2(C3=CCC(OC)(OC)C=C3)Sc3ccc(C(F)(F)F)cc3-n3cccc32)=CC1,5010 nM
22,COc1ccc([C@@H]2Sc3ccc(C(F)(F)F)cc3-n3c(CN(C)C)ccc3[C@@H]2OC(C)=O)cc1,5010 nM
23,COc1ccc(C2(OC(C)=O)Sc3ccccc3-n3cccc32)cc1 (centres undefined),30.2 nM
24,CC(=O)OC1(c2ccccc2)Sc2ccc(C(F)(F)F)cc2-n2cccc21 (centres undefined),64.6 nM
25,COc1ccc(CCN(C)Cc2ccc3n2-c2ccccc2SC3c2ccccc2)cc1OC (centres undefined),200 nM
26,COc1ccc([C@@H]2Sc3ccccc3-n3c(CN(C)C)ccc3[C@@H]2OC(C)=O)cc1,135 nM
27,COc1ccc(CCNCc2ccc3n2-c2ccccc2SC3C2=CCC(OC)(OC)C=C2)cc1OC (centres undefined),398 nM
28,COC1(OC)C=CC(C2(C3=CCC(OC)(OC)C=C3)Sc3ccccc3-n3cccc32)=CC1,5010 nM
29,CC(=O)O[C@H]1c2ccc(CN(C)C)n2-c2ccccc2S[C@H]1c1ccccc1,5010 nM
